Values after ≈ are worked out from the molar mass of the structure shown.

Series [1] is described as follows: HEK293 toxicity, 96-well dose-response (UCL; MTT or resazurin, with or without recovery). To be noted: human, HEK293 cells; read-out: HEK293 CC50. The class given is cell-based, human. A digest of the protocol:
(§1)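 HEK293 cells seeded 48 h beforehand (700 cells for recovery runs, 5000 for non-recovery), then exposed 24 h to 2-fold dilutions from 32 μg/mL down to […] (1% DMSO top). Viability read by MTT or resazurin, either immediately or after 72 h recovery; Dmax = 100 − viability% at 32 μg/mL.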

In series [2] the test system is HEK293 cells. The series is described as above. The series is classed as cell-based, human. Particulars: 32 μg/mL. In outline:
as §1

In the case of `c1ccc(-c2nc3n(c2-c2ccc4sccc4c2)CCC3)nc1` [OSA_000822], the CC50 at 24 h in series [1] was found to be 2.9 mg/L (≈ 9.14 µM).

Regarding `c1ccc(-c2nc3n(c2-c2ccc4occc4c2)CCC3)nc1` [compound 821], the CC50 at 24 h in series [1] amounted to 1.7 mg/L (≈ 5.64 µM). The “spread of Dmax values comparing recovery and non-recovery conditions” value in series [2] is recorded as “small difference”.

With `c1ccc(-c2nc3n(c2-c2ccc4sccc4c2)CCC3)nc1` [compound 822], the “spread of Dmax values comparing recovery and non-recovery conditions” value in series [2] is “small difference”.
